In this assay the test system is recombinant NL4-3 virus (Renilla luciferase in nef, Gag P373S). The assay can be described thus: HIV cell culture assay (luciferase activity in MT-2 cells infected with NLRluc recombinant virus). The class given is cell-based. The settings on record: NL43, MT-2 cells infected 4-5 days with NLRluc recombinant virus, class symbol. In outline:
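MT-2 cells in RPMI/10% FBS were infected with recombinant NL4-3 (NLRluc), produced by 293T transfection and titered in MT-2 by luciferase. Serial inhibitor dilutions were present throughout a 4–5 day infection. Antiviral activity was quantified as Renilla luciferase signal via a modified Dual Luciferase read.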

The values below come from US8748415B2 (priority 2011, dated 2014).

For `C=C(C)[C@@H]1CC[C@]2(CNCC(=O)OC)CC[C@]3(C)[C@H](CC[C@@H]4[C@@]5(C)CC=C(c6ccc(C(=O)O)cc6)C(C)(C)[C@@H]5CC[C@]43C)[C@@H]12` [Example 30, 4-((1R,3aS,5aR,5bR,7aR,11aS,11bR,13aR,13bR)-3a-((2-methoxy-2-oxoethylamino)methyl)-5a,5b,8,8,11a-pentamethyl-1-(prop-1-en-2-yl)-2,3,3a,4,5,5a,5b,6,7,7a,8,11,11a,11b,12,13,13a,13b-octadecahydro-1H-cyclopenta[a]chrysen-9-yl)benzoic acid], the EC50 (in general, the concentration that produces a half-maximal response) was less than 100 nM.

In the case of `C=C(C)[C@@H]1CC[C@]2(CNCCCCN3CCS(=O)(=O)CC3)CC[C@]3(C)[C@H](CC[C@@H]4[C@@]5(C)CC=C(c6ccc(C(=O)O)cc6)C(C)(C)[C@@H]5CC[C@]43C)[C@@H]12` [Example 76, 4-((1R,3aS,5aR,5bR,7aR,11aS,11bR,13aR,13bR)-3a-(((4-(1,1-dioxido-4-thiomorpholinyl)butyl)amino)methyl)-1-isopropenyl-5a,5b,8,8,11a-pentamethyl-2,3,3a,4,5,5a,5b,6,7,7a,8,11,11a,11b,12,13,13a,13b-octadecahydro-1H-cyclopenta[a]chrysen-9-yl)benzoic acid], the EC50 is less than 100 nM.

As for `C=C(C)[C@@H]1CC[C@]2(CNCCCN3CCCC3=O)CC[C@]3(C)[C@H](CC[C@@H]4[C@@]5(C)CC=C(c6ccc(C(=O)O)cc6F)C(C)(C)[C@@H]5CC[C@]43C)[C@@H]12` [Example 87, 3-fluoro-4-((1R,3aS,5aR,5bR,7aR,11aS,11bR,13aR,13bR)-5a,5b,8,8,11a-pentamethyl-3a-((3-(2-oxopyrrolidin-1-yl)propylamino)methyl)-1-(prop-1-en-2-yl)-2,3,3a,4,5,5a,5b,6,7,7a,8,11,11a,11b,12,13,13a,13b-octadecahydro-1H-cyclopenta[a]chrysen-9-yl)benzoic acid], the EC50 is less than 100 nM.

As for `C=C(C)[C@@H]1CC[C@]2(CNCCN3CCSCC3)CC[C@]3(C)[C@H](CC[C@@H]4[C@@]5(C)CC=C(c6ccc(C(=O)O)cc6)C(C)(C)[C@@H]5CC[C@]43C)[C@@H]12` [Example 86], the EC50 is less than 100 nM.

Regarding `C=C(C)[C@@H]1CC[C@]2(CNCCNCCO)CC[C@]3(C)[C@H](CC[C@@H]4[C@@]5(C)CC=C(c6ccc(C(=O)O)cc6)C(C)(C)[C@@H]5CC[C@]43C)[C@@H]12` [Example 62, 4-((1R,3aS,5aR,5bR,7aR,11aS,11bR,13aR,13bR)-3a-((2-(2-hydroxyethylamino)ethylamino)methyl)-5a,5b,8,8,11a-pentamethyl-1-(prop-1-en-2-yl)-2,3,3a,4,5,5a,5b,6,7,7a,8,11,11a,11b,12,13,13a,13b-octadecahydro-1H-cyclopenta[a]chrysen-9-yl)benzoic acid], the EC50 was less than 100 nM.

Take `C=C(C)[C@@H]1CC[C@]2(CNCCC(=O)NCCC(=O)N(C)C)CC[C@]3(C)[C@H](CC[C@@H]4[C@@]5(C)CC=C(c6ccc(C(=O)O)cc6)C(C)(C)[C@@H]5CC[C@]43C)[C@@H]12` [Example 99, 4-((1R,3aS,5aR,5bR,7aR,11aS,11bR,13aR,13bR)-3a-((3-(3-(dimethylamino)-3-oxopropylamino)-3-oxopropylamino)methyl)-5a,5b,8,8,11a-pentamethyl-1-(prop-1-en-2-yl)-2,3,3a,4,5,5a,5b,6,7,7a,8,11,11a,11b,12,13,13a,13b-octadecahydro-1H-cyclopenta[a]chrysen-9-yl)benzoic acid]: the EC50 is less than 100 nM.

On to `C=C(C)[C@@H]1CC[C@]2(CNCC(=O)N3CCCC3)CC[C@]3(C)[C@H](CC[C@@H]4[C@@]5(C)CC=C(c6ccc(C(=O)O)cc6)C(C)(C)[C@@H]5CC[C@]43C)[C@@H]12` [Example 109, 4-((1R,3aS,5aR,5bR,7aR,11aS,11bR,13aR,13bR)-5a,5b,8,8,11a-pentamethyl-3a-((2-oxo-2-(pyrrolidin-1-yl)ethylamino)methyl)-1-(prop-1-en-2-yl)-2,3,3a,4,5,5a,5b,6,7,7a,8,11,11a,11b,12,13,13a,13b-octadecahydro-1H-cyclopenta[a]chrysen-9-yl)benzoic acid], for which the EC50 is less than 100 nM.

Take `C=C(C)[C@@H]1CC[C@]2(CNCC3(CN4CCCC4)CC3)CC[C@]3(C)[C@H](CC[C@@H]4[C@@]5(C)CC=C(c6ccc(C(=O)O)cc6)C(C)(C)[C@@H]5CC[C@]43C)[C@@H]12` [Example 66, 4-((1R,3aS,5aR,5bR,7aR,11aS,11bR,13aR,13bR)-5a,5b,8,8,11a-pentamethyl-1-(prop-1-en-2-yl)-3a-(((1-(pyrrolidin-1-ylmethyl)cyclopropyl)methylamino)methyl)-2,3,3a,4,5,5a,5b,6,7,7a,8,11,11a,11b,12,13,13a,13b-octadecahydro-1H-cyclopenta[a]chrysen-9-yl)benzoic acid]: the EC50 was less than 100 nM.

Consider `C=C(C)[C@@H]1CC[C@]2(CNCCC(=O)N3CCN(CCS(C)(=O)=O)CC3)CC[C@]3(C)[C@H](CC[C@@H]4[C@@]5(C)CC=C(c6ccc(C(=O)O)cc6)C(C)(C)[C@@H]5CC[C@]43C)[C@@H]12` [Example 124, 4-((1R,3aS,5aR,5bR,7aR,11aS,11bR,13aR,13bR)-5a,5b,8,8,11a-pentamethyl-3a-((3-(4-(2-(methylsulfonyl)ethyl)piperazin-1-yl)-3-oxopropylamino)methyl)-1-(prop-1-en-2-yl)-2,3,3a,4,5,5a,5b,6,7,7a,8,11,11a,11b,12,13,13a,13b-octadecahydro-1H-cyclopenta[a]chrysen-9-yl)benzoic acid], for which the EC50 is less than 100 nM.

With `C=C(C)[C@@H]1CC[C@]2(CNCCCN3CCCCC3)CC[C@]3(C)[C@H](CC[C@@H]4[C@@]5(C)CC=C(c6ccc(C(=O)O)cc6)C(C)(C)[C@@H]5CC[C@]43C)[C@@H]12` [Example 72, 4-((1R,3aS,5aR,5bR,7aR,11aS,11bR,13aR,13bR)-5a,5b,8,8,11a-pentamethyl-3a-((3-(piperidin-1-yl)propylamino)methyl)-1-(prop-1-en-2-yl)-2,3,3a,4,5,5a,5b,6,7,7a,8,11,11a,11b,12,13,13a,13b-octadecahydro-1H-cyclopenta[a]chrysen-9-yl)benzoic acid], the EC50 was less than 100 nM.

In the case of `C=C(C)[C@@H]1CC[C@]2(CNCCC(=O)N3CCN(C)CC3)CC[C@]3(C)[C@H](CC[C@@H]4[C@@]5(C)CC=C(c6ccc(C(=O)O)cc6)C(C)(C)[C@@H]5CC[C@]43C)[C@@H]12` [Example 105, 4-((1R,3aS,5aR,5bR,7aR,11aS,11bR,13aR,13bR)-5a,5b,8,8,11a-pentamethyl-3a-((3-(4-methylpiperazin-1-yl)-3-oxopropylamino)methyl)-1-(prop-1-en-2-yl)-2,3,3a,4,5,5a,5b,6,7,7a,8,11,11a,11b,12,13,13a,13b-octadecahydro-1H-cyclopenta[a]chrysen-9-yl)benzoic acid], the EC50 is less than 100 nM.

On to `C=C(C)[C@@H]1CC[C@]2(CNS(=O)(=O)c3ccc(C(=O)O)cc3)CC[C@]3(C)[C@H](CC[C@@H]4[C@@]5(C)CC=C(c6ccc(C(=O)O)cc6)C(C)(C)[C@@H]5CC[C@]43C)[C@@H]12` [Example 167, 4-(N—(((1R,3aS,5aR,5bR,7aR,11aS,11bR,13aR,13bR)-9-(4-carboxyphenyl)-5a,5b,8,8,11a-pentamethyl-1-(prop-1-en-2-yl)-2,3,3a,4,5,5a,5b,6,7,7a,8,11,11a,11b,12,13,13a,13b-octadecahydro-1H-cyclopenta[a]chrysen-3a-yl)methyl)sulfamoyl)benzoic acid], for which the EC50 is less than 100 nM.

`C=C(C)[C@@H]1CC[C@]2(CNCCN3CCCCC3=O)CC[C@]3(C)[C@H](CC[C@@H]4[C@@]5(C)CC=C(c6ccc(C(=O)O)cc6)C(C)(C)[C@@H]5CC[C@]43C)[C@@H]12` [Example 78, 4-((1R,3aS,5aR,5bR,7aR,11aS,11bR,13aR,13bR)-5a,5b,8,8,11a-pentamethyl-3a-((2-(2-oxopiperidin-1-yl)ethylamino)methyl)-1-(prop-1-en-2-yl)-2,3,3a,4,5,5a,5b,6,7,7a,8,11,11a,11b,12,13,13a,13b-octadecahydro-1H-cyclopenta[a]chrysen-9-yl)benzoic acid]: the EC50 is less than 100 nM.

Take `C=C(C)[C@@H]1CC[C@]2(CNCCN(C)C)CC[C@]3(C)[C@H](CC[C@@H]4[C@@]5(C)CC=C(c6ccc(C(=O)O)cc6)C(C)(C)[C@@H]5CC[C@]43C)[C@@H]12` [Example 1, 4-((1R,3aS,5aR,5bR,7aR,11aS,11bR,13aR,13bR)-3a-((2-(dimethylamino)ethylamino)methyl)-5a,5b,8,8,11a-pentamethyl-1-(prop-1-en-2-yl)-2,3,3a,4,5,5a,5b,6,7,7a,8,11,11a,11b,12,13,13a,13b-octadecahydro-1H-cyclopenta[a]chrysen-9-yl)benzoic acid]: the EC50 is less than 100 nM.

As for `C=C(C)[C@@H]1CC[C@]2(CNC(=O)NCCN3CCCC3=O)CC[C@]3(C)[C@H](CC[C@@H]4[C@@]5(C)CC=C(c6ccc(C(=O)O)cc6)C(C)(C)[C@@H]5CC[C@]43C)[C@@H]12` [Example 154, 4-((1R,3aS,5aR,5bR,7aR,11aS,11bR,13aR,13bR)-5a,5b,8,8,11a-pentamethyl-3a-((3-(2-(2-oxopyrrolidin-1-yl)ethyl)ureido)methyl)-1-(prop-1-en-2-yl)-2,3,3a,4,5,5a,5b,6,7,7a,8,11,11a,11b,12,13,13a,13b-octadecahydro-1H-cyclopenta[a]chrysen-9-yl)benzoic acid], the EC50 is less than 100 nM.

Turning to `C=C(C)[C@@H]1CC[C@]2(CNCC(=O)N3CCS(=O)(=O)CC3)CC[C@]3(C)[C@H](CC[C@@H]4[C@@]5(C)CC=C(c6ccc(C(=O)O)cc6)C(C)(C)[C@@H]5CC[C@]43C)[C@@H]12` [Example 108, 4-((1R,3aS,5aR,5bR,7aR,11aS,11bR,13aR,13bR)-3a-(((2-(1,1-dioxido-4-thiomorpholinyl)-2-oxoethyl)amino)methyl)-1-isopropenyl-5a,5b,8,8,11a-pentamethyl-2,3,3a,4,5,5a,5b,6,7,7a,8,11,11a,11b,12,13,13a,13b-octadecahydro-1H-cyclopenta[a]chrysen-9-yl)benzoic acid], the EC50 is less than 100 nM.
